Results on 22 molecules are retold here after patent US7910600B2, “Therapeutic kinase modulators” (Cylene Pharmaceuticals, Inc., priority 2007, dated 2011).

The target of one test is T1, recombinant human CK2 (Homo sapiens, UniProt P68400).
T1 construct: purchased Upstate
As to the kind of experiment: Cell-free CK2 assay. It is filed as biochemical. To be noted: for inhibition at 0.5 µM: read-out: CK2: % inh 500 nM. The method, then: Modulatory activity of compounds described herein is assessed in vitro in cell-free CK2 assays. These assays are described hereafter.
Test compounds in aqueous solution are added at a volume of 10 microliters, to a reaction mixture comprising 10 microliters Assay Dilution Buffer (ADB; 20mM MOPS, pH 7.2, 25 mM beta-glycerolphosphate, 5 mM EGTA, 1 mM sodium orthovanadate and 1 mM dithiothreitol), 10 microliters of substrate peptide (RRRDDDSDDD (SEQ ID NO:4), dissolved in ADB at a concentration of 1 mM), 10 microliters of recombinant human CK2 (25 ng dissolved in ADB; Upstate). Reactions are initiated by the addition of 10 microliters of ATP Solution (90% 75 mM MgC12, 75 micromolar ATP dissolved in ADB; 10% [γ-^33P]ATP (stock 1 mCi/100 μl; 3000 Ci/mmol (Perkin Elmer) and maintained for 10 minutes at 30 degrees C. The reactions are quenched with 100 microliters of 0.75% phosphoric acid, then transferred to and filtered through a phosphocellulose filter plate (Millipore). After washing each well 5 times with 0.75% phosphoric acid, the plate is dried under vacuum for 5 min and, following the addition of 15 ul of scintillation fluid to each well, the residual radioactivity is measured using a Wallac […].

Test [1] relates to HCT-116 human colorectal carcinoma cells. As to the kind of experiment: Cell proliferation assay (Alamar Blue), HCT-116. It is filed as cell-based. As to conditions: HCT-116 cell line. The protocol:
(§1) A representative cell-proliferation assay protocol using Alamar Blue dye (stored at 4° C., use 20 ul per well) is described hereafter.
(§2) 96-Well Plate Setup and Compound Treatment
(§3) • a. Split and trypsinize cells. • b. Count cells using hemocytometer. • c. Plate 4,000-5,000 cells per well in 100 μl of medium and seed into a 96-well plate according to the following plate layout. Add cell culture medium only to wells B10 to B12. Wells B1 to B9 have cells but no compound added.
(§4) • d. Add 100 μl of 2× drug dilution to each well in a concentration shown in the plate layout above. At the same time, add 100 μl of media into the control wells (wells B10 to B12). Total volume is 200 μl/well. • e. Incubate four (4) days at 37° C., 5% CO2 in a humidified incubator. • f. Add 20 μl Alamar Blue reagent to each well. • g. Incubate for four (4) hours at 37° C., 5% CO2 in a humidified incubator. • h. Record fluorescence at an excitation wavelength of 544 nm and emission wavelength of 590 nm using a microplate reader.
(§5) In the assays, cells are cultured with a test compound for approximately four days, the dye is then added to the cells and fluorescence of […] dye is detected after approximately four hours. Different types of cells can be utilized in the assays (e.g., HCT-116 human colorectal carcinoma cells, PC-3 human prostatic cancer cells and MiaPaca human pancreatic carcinoma cells).
(In general: Alamar Blue is a resazurin reagent that responds to reducing activity.)

A further test deals with K562. As to the kind of experiment: Cell proliferation assay (Alamar Blue), K562. It is filed as cell-based. To be noted: Homo sapiens; K562 cell line. The protocol: as §1, §2, §3, §4, §5
For the next test, the system named is MV-4-11. As to the kind of experiment: Cell proliferation assay (Alamar Blue), MV-4-11. It is filed as cell-based. To be noted: Homo sapiens, MV4-11; MV-4-11 cell line. The method, then: as §1, §2, §3, §4, §5
Test [2] deals with MiaPaca human pancreatic carcinoma cells. As to the kind of experiment: Cell proliferation assay (Alamar Blue), MiaPaCa. It is filed as cell-based. As to conditions: MIA PaCa-2, MiaPaCa cell line. The method, then: as §1, §2, §3, §4, §5
In test [3] the test system is PC-3 human prostatic cancer cells. Put plainly: Cell proliferation assay (Alamar Blue), PC3. To be noted: PC3 cell line. It is filed as cell-based. The method, then:
as §1, §2, §3, §4, §5

For another test, the system named is BxPC3. Put plainly: Cell proliferation assay (Alamar Blue), BxPC3. It is filed as cell-based. As to conditions: Homo sapiens, BXPC-3; BxPC3 cell line; read-out: Bx-PC3. The protocol: as §1, §2, §3, §4, §5
In the next test the test system is MDA-MB231. As to the kind of experiment: Cell proliferation assay (Alamar Blue), MDA-MB231. It is filed as cell-based. To be noted: Homo sapiens, MDA-MB-231; MDA-MB231 cell line. The protocol: as §1, §2, §3, §4, §5
In a further test the test system is PanC1. Put plainly: Cell proliferation assay (Alamar Blue), PanC1. It is filed as cell-based. To be noted: Homo sapiens, PANC-1; PanC1 cell line. The method, then: as §1, §2, §3, §4, §5
A further test concerns Jurkat. As to the kind of experiment: Cell proliferation assay (Alamar Blue), Jurkat. It is filed as cell-based. To be noted: Homo sapiens; Jurkat cell line. The protocol: as §1, §2, §3, §4, §5

Molecules are shown by their SMILES. Some results are limits rather than exact numbers.

T1 sequence (P68400 whole entry): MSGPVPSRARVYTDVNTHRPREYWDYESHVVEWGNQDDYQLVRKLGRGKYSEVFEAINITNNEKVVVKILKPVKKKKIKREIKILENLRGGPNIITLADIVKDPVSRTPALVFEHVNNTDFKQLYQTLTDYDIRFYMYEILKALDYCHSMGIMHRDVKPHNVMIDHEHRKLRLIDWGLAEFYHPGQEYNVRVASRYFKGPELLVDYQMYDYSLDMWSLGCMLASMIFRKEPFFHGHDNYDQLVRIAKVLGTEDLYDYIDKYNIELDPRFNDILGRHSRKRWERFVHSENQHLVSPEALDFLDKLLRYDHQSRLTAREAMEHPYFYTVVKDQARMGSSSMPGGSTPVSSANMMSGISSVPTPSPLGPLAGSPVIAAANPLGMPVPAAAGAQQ
T1 sequence (P67870 whole entry partner): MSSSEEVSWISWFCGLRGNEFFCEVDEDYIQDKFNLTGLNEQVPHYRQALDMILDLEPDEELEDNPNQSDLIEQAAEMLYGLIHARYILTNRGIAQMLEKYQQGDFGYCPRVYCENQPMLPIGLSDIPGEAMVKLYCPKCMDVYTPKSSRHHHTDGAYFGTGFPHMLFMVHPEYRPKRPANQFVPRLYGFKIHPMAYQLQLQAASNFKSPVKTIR

In the case of `CN1CCN(C(=O)c2ccc3c(c2)nc(-c2cccc(N)c2)c2ccncc23)CC1`, at recombinant human CK2, the inhibition at 0.5 µM was 19%. Moreover, the IC50 (in test [1]; in the test with K562; with MV-4-11; in test [2]; in test [3]) was > 10 µM in each case.
For `CN1CCCCC1CNC(=O)c1ccc2c(c1)nc(-c1cccc(N)c1)c1ccncc12` (stereo not shown), the inhibition at 0.5 µM on recombinant human CK2 was determined as 9%. Further, the IC50 (in [1]; with K562; in the test on MV-4-11; in [2]; in [3]) was > 10 µM in each case.
As for `NC(=O)c1ccc2c(c1)nc(-c1ccccc1)c1nc(NC3CC3)ncc12`, the inhibition at 0.5 µM on recombinant human CK2 came to 45%. Moreover, the IC50 in test [1] came to 1.1 µM; in test [2], 5.2 µM; with BxPC3, 1.1 µM; in the test on MDA-MB231 it was 35.7 µM; in the test on PanC1, 25.9 µM; in the test with Jurkat, 0.5 µM.
As for `COC(=O)c1ccc2c(c1)nc(-c1cnn(C)c1)c1nc(NC3CC3)ncc12`, the inhibition at 0.5 µM at recombinant human CK2 stood at 10%. In addition, the IC50 in test [1] was > 10 µM; in test [2], 0.6 µM; in the test on BxPC3, > 30 µM; with MDA-MB231, 17.2 µM; with PanC1, 1.4 µM; in the test on Jurkat, > 30 µM.
With `Cn1cc(-c2nc3cc(C(=O)NC4CC4)ccc3c3cnc(NC4CC4)nc23)cn1`, the inhibition at 0.5 µM at recombinant human CK2 stood at 0%. The IC50 is 4.3 µM in test [1]; 2.8 µM in [2]; 5.9 µM with BxPC3; > 30 µM with MDA-MB231; > 30 µM in the test on PanC1; 1.6 µM in the test on Jurkat.
As to `O=C(O)c1ccc2c(c1)nc(-c1cccc(Cl)c1)c1ccncc12`, the IC50 on recombinant human CK2 was 0.03 µM; in [1], > 10 µM; in the test on K562 it was 0.9 µM; with MV-4-11, > 10 µM; in test [2], > 10 µM; in the test with BxPC3, > 10 µM. For the same molecule, the IC50 (in the test with MDA-MB231; in test [3]) was > 10 µM in each case. In addition, the inhibition at 0.5 µM at recombinant human CK2 is 95%.
Take `Cc1ccccc1-c1nc2cc(C(=O)O)ccc2c2cnccc12`: the inhibition at 0.5 µM on recombinant human CK2 amounted to 76%. Besides, the IC50 (in test [1]; in the test on K562; in test [2]; in test [3]) was > 10 µM in each case.
Take `COc1cccc(F)c1-c1nc2cc(C(=O)O)ccc2c2cnccc12`: on recombinant human CK2, the inhibition at 0.5 µM worked out at 68%. The IC50 (in test [1]; in the test with K562; in test [2]; in test [3]) was > 10 µM throughout.
For `O=C(O)c1ccc2c(c1)nc(-c1ccsc1)c1ccncc12`, the IC50 was 0.004 µM at recombinant human CK2; > 30 µM in test [1]; 0.2 µM in the test with K562; 13.3 µM in the test with MV-4-11; > 10 µM in [2]; > 10 µM in the test with BxPC3. In addition, the IC50 (in the test on MDA-MB231; in [3]) was > 10 µM each time. For the same molecule, at recombinant human CK2, the inhibition at 0.5 µM was 98%.
For the molecule `O=C(O)c1ccc2c(c1)nc(-c1ccc(Cl)cc1)c1ccncc12`, the IC50 at recombinant human CK2 was 0.007 µM; in test [1] it was > 10 µM; with K562, > 10 µM; with MV-4-11, > 10 µM; in [2], > 10 µM; in the test with BxPC3, > 10 µM. In addition, the IC50 (in the test on MDA-MB231; in test [3]) was > 10 µM in each case. For the same molecule, the inhibition at 0.5 µM at recombinant human CK2 was 98%.
Take `Clc1ccc(-c2nc3ccccc3c3cnccc23)cc1`: the inhibition at 0.5 µM on recombinant human CK2 was -5%. In addition, the IC50 (in test [1]; in the test on K562; in test [2]; in [3]) was > 10 µM in each case.
As for `Cc1ccccc1-c1nc2ccccc2c2cnccc12`, the inhibition at 0.5 µM on recombinant human CK2 was -15%. Besides, the IC50 (in test [1]; with K562; in [2]; in [3]) was > 10 µM in each case.
With `Clc1cccc(-c2nc3ccccc3c3cnccc23)c1`, the inhibition at 0.5 µM on recombinant human CK2 is -17%. For the same molecule, the IC50 (in [1]; in the test on K562; in test [2]; in test [3]) was > 10 µM throughout.
With `O=C(O)c1ccc2c(c1)nc(-c1ccccc1F)c1ccncc12`, the IC50 was 0.106 µM on recombinant human CK2; > 10 µM in [1]; > 10 µM with K562; > 10 µM in the test on MV-4-11; > 10 µM in test [2]; 4.1 µM in test [3]. In addition, the inhibition at 0.5 µM on recombinant human CK2 turned out to be 97%.
Consider `O=C(O)c1ccc2c(c1)nc(-c1cccc(F)c1)c1ccncc12`, for which the IC50 at recombinant human CK2 was 0.029 µM; in test [1], > 10 µM; in the test on K562, > 10 µM; with MV-4-11, 1.4 µM; in [2], > 10 µM; in the test on MDA-MB231, 0.2 µM. In addition, the IC50 in [3] is > 10 µM. For the same molecule, the inhibition at 0.5 µM on recombinant human CK2 amounted to 98%.
As for `O=C(O)c1ccc2c(c1)nc(-c1ccc(F)cc1)c1ccncc12`, the IC50 was 0.033 µM on recombinant human CK2; > 10 µM in [1]; 1 µM with K562; 7 µM with MV-4-11; > 30 µM in [2]; > 10 µM in test [3]. Moreover, the inhibition at 0.5 µM on recombinant human CK2 turned out to be 98%.
On to `O=C(O)c1ccc2c(c1)nc(-c1ccccc1OC(F)(F)F)c1ccncc12`, for which the inhibition at 0.5 µM on recombinant human CK2 was found to be 23%. Besides, the IC50 in [1], in test [2] and in test [3] was > 10 µM in each case.
As to `N#Cc1cccc(-c2nc3cc(C(=O)O)ccc3c3cnccc23)c1`, the IC50 on recombinant human CK2 was 0.045 µM; in [1], > 10 µM; in [2] it was > 10 µM; in test [3], > 10 µM. For the same molecule, the inhibition at 0.5 µM at recombinant human CK2 was 98%.
In the case of `O=C(O)c1ccc2c(c1)nc(-c1ccccc1)c1nc(NC3CC3)ncc12` [3-(cyclopropylamino)-5-phenylpyrimido[4,5-c]quinoline-8-carboxylic acid], the IC50 on recombinant human CK2 amounted to 0.093 µM; in test [1], 2.9 µM; in test [2] it was 3.7 µM; with BxPC3, 4.5 µM; in the test with MDA-MB231, 11.1 µM; in the test on PanC1, 15.9 µM. In addition, the IC50 with Jurkat was determined as 1.5 µM. Further, the inhibition at 0.5 µM on recombinant human CK2 is 99%.
For the molecule `COC(=O)c1ccc2c(c1)nc(-c1cnn(C)c1)c1nc(SC)ncc12` [Methyl 5-(1-methyl-1H-pyrazol-4-yl)-3-(methylthio)pyrimido[4,5-c]quinoline-8-carboxylate], on recombinant human CK2, the inhibition at 0.5 µM amounted to 68%. Moreover, the IC50 in test [1] is > 10 µM; in test [2], > 62.5 µM; with BxPC3, > 62.5 µM; with MDA-MB231, > 62.5 µM; in the test on PanC1, > 62.5 µM; in the test on Jurkat it was 47.6 µM.
On to `O=C(NC1CC1)c1ccc2c(c1)nc(-c1ccccc1)c1nc(NC3CC3)ncc12` [N-cyclopropyl-3-(cyclopropylamino)-5-phenylpyrimido[4,5-c]quinoline-8-carboxamide], for which the inhibition at 0.5 µM at recombinant human CK2 is -4%. The IC50 was 0.8 µM in test [1]; 58.4 µM in [2]; 1.2 µM in the test on BxPC3; > 62.5 µM in the test with MDA-MB231; 30.2 µM in the test with PanC1; 0.6 µM with Jurkat.
Take `COC(=O)c1ccc2c(c1)nc(-c1ccccc1)c1nc(NC3CC3)ncc12` [methyl 3-(cyclopropylamino)-5-phenylpyrimido[4,5-c]quinoline-8-carboxylate]: the inhibition at 0.5 µM at recombinant human CK2 is -27%. Moreover, the IC50 in test [1] stood at 2.6 µM; in test [2], 3.2 µM; in the test on BxPC3, 1.9 µM; in the test with MDA-MB231, 3.4 µM; with PanC1, 8.7 µM; in the test on Jurkat, 1.1 µM.
